According to patent US20240092758A1, “IMIDAZOLO INDAZOLE COMPOUNDS AS JAK INHIBITORS” (Theravance Biopharma R&D IP, LLC, priority 2021, published 2024):

Key:
[1] = tested on: IL-13 induced STAT6 phosphorylation in BEAS-2B human lung epithelial cells; assay: Cellular JAKI potency assay (BEAS-2B); assay type: cell-based; conditions: BEAS-2B cells; for IC50: Homo sapiens, BEAS-2B, read-out: BEAS2B pIC50 (converted)
Outline: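 BEAS-2B cells were preincubated with compound (0.1% DMSO) in HBSS/HEPES/BSA for 1 h at 37 °C, then stimulated with IL-13 (80 ng/mL before addition) for 30 min. After lysis, pSTAT6 (Tyr641) was quantified by AlphaLISA SureFire; IC50 from a 4-parameter fit of percent inhibition, reported as pIC50.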

JAK1 = JAK1 (Homo sapiens (Human), UniProt P23458); assay: Biochemical JAK kinase assay (LanthaScreen), JAK1; conditions: for Ki: read-out: JAK1 pKi (converted)
Outline: (§1)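 LanthaScreen format: phospho-STAT1 (pTyr701) detected with 2 nM Tb antibody after 10 mM EDTA quench. Kinase step used Km-level ATP and 200 nM STAT1 peptide, 1 h at ambient after 1 h pre-incubation. Inhibition fitted to IC50, reported as pKi.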

JAK2 = JAK2 (Homo sapiens (Human), UniProt O60674); assay: Biochemical JAK kinase assay (LanthaScreen), JAK2; conditions: for Ki: read-out: JAK2 pKi (converted)
Outline: as §1

Sequence of JAK2 (O60674 whole entry): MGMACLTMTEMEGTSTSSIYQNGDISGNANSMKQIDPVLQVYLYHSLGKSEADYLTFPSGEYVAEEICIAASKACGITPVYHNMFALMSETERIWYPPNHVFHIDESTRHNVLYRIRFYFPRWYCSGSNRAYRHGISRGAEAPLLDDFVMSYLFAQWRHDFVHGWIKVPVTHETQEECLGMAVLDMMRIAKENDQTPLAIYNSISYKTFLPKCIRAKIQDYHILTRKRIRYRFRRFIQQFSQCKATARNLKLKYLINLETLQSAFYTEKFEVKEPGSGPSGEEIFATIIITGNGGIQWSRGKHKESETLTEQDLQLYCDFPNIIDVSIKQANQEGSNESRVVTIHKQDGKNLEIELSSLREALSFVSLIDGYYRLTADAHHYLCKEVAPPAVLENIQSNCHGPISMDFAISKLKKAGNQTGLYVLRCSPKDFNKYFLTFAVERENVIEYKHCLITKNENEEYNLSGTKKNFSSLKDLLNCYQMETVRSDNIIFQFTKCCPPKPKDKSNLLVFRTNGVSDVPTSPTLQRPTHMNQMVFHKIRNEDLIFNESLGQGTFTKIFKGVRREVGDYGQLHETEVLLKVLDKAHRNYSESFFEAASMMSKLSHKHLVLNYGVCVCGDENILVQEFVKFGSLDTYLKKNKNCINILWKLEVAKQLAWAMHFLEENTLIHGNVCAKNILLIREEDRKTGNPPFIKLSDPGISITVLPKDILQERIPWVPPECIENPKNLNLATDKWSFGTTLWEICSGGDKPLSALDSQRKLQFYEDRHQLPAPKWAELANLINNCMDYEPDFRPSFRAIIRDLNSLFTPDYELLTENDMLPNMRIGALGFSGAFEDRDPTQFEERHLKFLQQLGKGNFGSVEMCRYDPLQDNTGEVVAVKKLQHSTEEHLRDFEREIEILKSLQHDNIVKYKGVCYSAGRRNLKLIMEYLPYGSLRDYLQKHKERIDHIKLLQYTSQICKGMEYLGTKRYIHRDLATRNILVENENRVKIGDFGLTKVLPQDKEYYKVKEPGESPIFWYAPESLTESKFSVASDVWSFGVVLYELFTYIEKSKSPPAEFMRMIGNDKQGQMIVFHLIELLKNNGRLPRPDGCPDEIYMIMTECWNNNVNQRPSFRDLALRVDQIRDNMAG
Sequence of JAK1 (P23458 whole entry): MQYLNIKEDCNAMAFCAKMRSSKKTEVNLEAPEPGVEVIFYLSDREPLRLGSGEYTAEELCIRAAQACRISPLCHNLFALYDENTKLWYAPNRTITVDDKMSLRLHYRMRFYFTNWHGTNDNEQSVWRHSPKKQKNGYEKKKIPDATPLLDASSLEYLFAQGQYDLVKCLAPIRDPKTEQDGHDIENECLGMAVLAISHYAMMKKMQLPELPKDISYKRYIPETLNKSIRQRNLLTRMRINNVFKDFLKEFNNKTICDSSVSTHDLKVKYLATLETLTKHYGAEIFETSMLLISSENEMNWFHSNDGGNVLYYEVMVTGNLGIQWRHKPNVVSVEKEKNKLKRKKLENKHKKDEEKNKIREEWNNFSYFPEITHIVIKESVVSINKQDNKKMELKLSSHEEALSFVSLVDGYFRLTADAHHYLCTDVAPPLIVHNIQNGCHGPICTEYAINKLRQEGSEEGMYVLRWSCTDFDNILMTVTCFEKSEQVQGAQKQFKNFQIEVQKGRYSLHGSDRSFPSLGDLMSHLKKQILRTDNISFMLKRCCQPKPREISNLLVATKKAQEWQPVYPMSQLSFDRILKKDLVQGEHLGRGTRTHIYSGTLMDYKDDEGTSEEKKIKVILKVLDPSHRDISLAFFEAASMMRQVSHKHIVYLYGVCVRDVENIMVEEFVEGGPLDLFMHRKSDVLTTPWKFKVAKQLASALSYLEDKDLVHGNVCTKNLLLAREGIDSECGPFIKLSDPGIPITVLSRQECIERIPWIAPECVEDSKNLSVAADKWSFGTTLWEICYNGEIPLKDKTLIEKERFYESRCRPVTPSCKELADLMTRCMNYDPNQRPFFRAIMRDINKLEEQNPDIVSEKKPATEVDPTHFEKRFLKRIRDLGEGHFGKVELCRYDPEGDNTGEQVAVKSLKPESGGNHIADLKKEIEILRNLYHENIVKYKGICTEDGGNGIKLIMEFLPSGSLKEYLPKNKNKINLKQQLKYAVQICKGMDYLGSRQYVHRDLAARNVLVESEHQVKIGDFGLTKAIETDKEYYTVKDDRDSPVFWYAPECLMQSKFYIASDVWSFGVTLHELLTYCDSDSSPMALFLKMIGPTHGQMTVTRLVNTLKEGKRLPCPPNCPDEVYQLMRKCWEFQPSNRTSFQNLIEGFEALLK

Row | Structure (SMILES) | IC50 [1] [nM] | Ki (JAK1) [nM] | JAK2 pKi (JAK2) | Ki (JAK2) [nM] | BEAS2B pIC50 [1] | JAK1 pKi (JAK1)
1 | CCc1cc(O)ccc1-c1ccc2c(-c3nc(C4=CCN(CC5COC5)CC4)c[nH]3)n[nH]c2c1F [Example 60] | 10 to 31.6 | 0.1 to 1 | A (A represents a pKi value ≥10 (Ki≤0.1 nM)) |  |  | 
2 | CCc1cc(O)ccc1-c1ccc2c(-c3nc(C4=CCN(CCCO)C4)c[nH]3)n[nH]c2c1 [Example 297] | 10 to 31.6 | 0.1 to 1 |  | 0.1 to 1 |  | 
3 | CCc1cc(O)ccc1-c1ccc2c(-c3nc(C4=C[C@H](CO)N(Cc5cnoc5)C4)c[nH]3)n[nH]c2c1F [Example 355] | 31.6 to 100 | 0.1 to 1 |  | 0.1 to 1 |  | 
4 | CCc1cc(O)ccc1-c1ccc2c(-c3nc(C4=CCN([C@H]5CC[C@@H](O)CC5)C4)c[nH]3)n[nH]c2c1F [Example 129] |  |  | A (A represents a pKi value ≥10 (Ki≤0.1 nM)) |  | A (A represents a pIC50 value between 8 (included) and 8.5) | A (A represents a pKi value ≥10 (Ki≤0.1 nM))
5 | CCc1cc(O)ccc1-c1ccc2c(-c3nc(C4=CCN(CC)C4)c[nH]3)n[nH]c2c1F [Example 283] | 3.16 to 10 |  | A (A represents a pKi value ≥10 (Ki≤0.1 nM)) |  |  | A (A represents a pKi value ≥10 (Ki≤0.1 nM))
6 | CCc1cc(O)ccc1-c1ccc2c(-c3nc(C4=CCN(CC5COC5)C4)c[nH]3)n[nH]c2c1 [Example 71] | 3.16 to 10 |  | A (A represents a pKi value ≥10 (Ki≤0.1 nM)) |  |  | A (A represents a pKi value ≥10 (Ki≤0.1 nM))
7 | CCc1cc(O)ccc1-c1ccc2c(-c3nc(C4=CCN(C(=O)COCCNCCOC)C4)c[nH]3)n[nH]c2c1F [Example 389] | 100 to 316 | 0.1 to 1 | A (A represents a pKi value ≥10 (Ki≤0.1 nM)) |  |  | 
8 | CCc1cc(O)ccc1-c1ccc2c(-c3nc(C4=CCN(Cc5c[nH]nn5)C4)c[nH]3)n[nH]c2c1 [Example 144] | 10 to 31.6 |  | A (A represents a pKi value ≥10 (Ki≤0.1 nM)) |  |  | A (A represents a pKi value ≥10 (Ki≤0.1 nM))
9 | CCc1cc(O)ccc1-c1ccc2c(-c3nc(C4=CCCN(C(=O)OC)C4)c[nH]3)n[nH]c2c1 [Example 161] | 31.6 to 100 | 0.1 to 1 |  | 1 to 10 |  | 
10 | CCc1cc(O)ccc1-c1ccc2c(-c3nc(C4=CCN(CCS(=O)(=O)NC)C4)c[nH]3)n[nH]c2c1F [Example 393] | 100 to 316 | 0.1 to 1 |  | 0.1 to 1 |  | 
11 | CCc1cc(O)ccc1-c1ccc2c(-c3nc(C4=CCN(CCS(C)(=O)=O)CC4)c[nH]3)n[nH]c2c1F [Example 82] | 10 to 31.6 | 0.1 to 1 |  | 0.1 to 1 |  | 
12 | CCc1cc(O)ccc1-c1ccc2c(-c3nc(C4=CCCN(S(C)(=O)=O)C4)c[nH]3)n[nH]c2c1 [Example 160] | 10 to 31.6 | 0.1 to 1 |  | 0.1 to 1 |  | 
13 | CCc1cc(O)ccc1-c1ccc2c(-c3nc(C4=CC[C@H](C)N([C@H]5C[C@@H](O)C5)C4)c[nH]3)n[nH]c2c1F [Example 265] | 3.16 to 10 | 0.1 to 1 |  | 0.1 to 1 |  | 
14 | CCc1cc(O)ccc1-c1ccc2c(-c3nc(C4=CCN([C@H]5CC[C@@H](O)CC5)C4)c[nH]3)n[nH]c2c1 [Example 287] | 3.16 to 10 |  | A (A represents a pKi value ≥10 (Ki≤0.1 nM)) |  |  | A (A represents a pKi value ≥10 (Ki≤0.1 nM))
15 | CCc1cc(O)ccc1-c1ccc2c(-c3nc(C4=CCCN(C(C)C)C4)c[nH]3)n[nH]c2c1 [Example 28] | 3.16 to 10 | 0.1 to 1 |  | 0.1 to 1 |  | 
16 | CCc1cc(O)ccc1-c1ccc2c(-c3nc(C4=C(C(=O)OC)CCNC4)c[nH]3)n[nH]c2c1F [Example 295] | 3.16 to 10 | 0.1 to 1 | A (A represents a pKi value ≥10 (Ki≤0.1 nM)) |  |  | 
17 | CCc1cc(O)ccc1-c1ccc2c(-c3nc(C4=CC(C(C)C)NC4)c[nH]3)n[nH]c2c1F (stereo not drawn) [Example 388] | 31.6 to 100 | 1 to 10 |  | 1 to 10 |  | 
18 | CCc1cc(O)ccc1-c1ccc2c(-c3nc(C4=CCN(Cc5c[nH]nn5)C4)c[nH]3)n[nH]c2c1F [Example 146] | 10 to 31.6 | 0.1 to 1 |  | 0.1 to 1 |  | 
